Where two headings read alike, the source gives them in different places.
How the values were obtained:
Type in all cases: cell-based, Human
[1] = system: NCI-H460; assay: Cytotoxicity assay (SRB, 72 h) NCI-H460; details: 72 h, SRB assay, read-out: IC50 ± SD NCI-H460
[2] = system: Capan 1; assay: Cytotoxicity assay (SRB, 72 h) Capan 1
[3] = system: A431; assay: Cytotoxicity assay (SRB, 72 h) A431
[4] = system: HeLa; assay: Cytotoxicity assay (SRB, 72 h) HeLa; details: read-out: IC50 ± SD HeLa
[5] = system: HT29; assay: Cytotoxicity assay (SRB, 72 h) HT29
[6] = system: DU145; assay: Cytotoxicity assay (SRB, 72 h) DU145
[7] = system: HepG2; assay: Cytotoxicity assay (SRB, 72 h) HepG2
[8] = system: A2780; assay: Cytotoxicity assay (SRB, 72 h) A2780
[9] = system: A2780-Dx; assay: Cytotoxicity assay (SRB, 72 h) A2780-Dx; details: for IC50: 72 h, SRB assay, multidrug-resistant ovarian carcinoma, read-out: IC50 ± SD A2780-Dx; for RI (Resistance Index): A2780-Dx versus A2780
[10] = system: MINO; assay: Cytotoxicity assay (MTT, 72 h) MINO; details: 72 h, MTT assay; read-out: IC50 ± SD MINO
[11] = system: MAVER-2; assay: Cytotoxicity assay (MTT, 72 h) MAVER-2; details: read-out: IC50 ± SD MAVER-2
[12] = system: JECO-1; assay: Cytotoxicity assay (MTT, 72 h) JECO-1; details: 72 h, MTT assay; read-out: IC50 ± SD JECO-1
[13] = system: U-2932; assay: Cytotoxicity assay (MTT, 72 h) U-2932; details: read-out: IC50 ± SD U-2932
[14] = system: OCI-LY3; assay: Cytotoxicity assay (MTT, 72 h) OCI-LY3; details: 72 h, MTT assay; read-out: IC50 ± SD OCI-LY3
Method: (§1) Human tumor cells were seeded in 96-well cell culture plastic plates, allowed to attach, and exposed to scalar concentrations of the test compounds.

[15] = system: L-428; assay: Cytotoxicity assay (MTT, 72 h) L-428; details: 72 h, MTT assay; read-out: IC50 ± SD L-428
Method: as §1

[16] = system: KM-H2; assay: Cytotoxicity assay (MTT, 72 h) KM-H2; details: 72 h, MTT assay; read-out: IC50 ± SD KM-H2
[17] = system: DG-75; assay: Cytotoxicity assay (MTT, 72 h) DG-75
[18] = system: NB4; assay: Cytotoxicity assay (MTT, 72 h) NB4; details: read-out: IC50 ± SD NB4
[19] = Homo sapiens, CAPAN-1, read-out: IC50 ± SD Capan 1

How did the IC50 [1] turn out when `CCc1c2c(nc3ccc(OCCCCCCC(=O)NO)cc13)-c1cc3c(c(=O)n1C2)COC(=O)[C@]3(O)CC` [CY700] was run?
Its IC50 is 360 ± 20 nM.

What about the IC50 ([2]; read-out: IC50 ± SD Capan 1) of the same compound?
The IC50 was 960 ± 80 nM.

And the IC50 ([3]; read-out: IC50 ± SD A431)?
Its IC50 is 790 ± 100 nM.

What about the IC50 [4] of the same compound?
Its IC50 is 3300 ± 900 nM.

And the IC50 ([5]; read-out: IC50 ± SD HT29)?
The IC50 was 1200 ± 200 nM.

And the IC50 ([6]; read-out: IC50 ± SD DU145)?
The IC50 was 870 ± 40 nM.

What about the IC50 ([7]; read-out: IC50 ± SD HepG2) of the same compound?
The IC50 was 1500 ± 400 nM.

And the IC50 ([8]; read-out: IC50 ± SD A2780)?
Its IC50 is 2500 ± 300 nM.

And the IC50 [9]?
The IC50 was 5900 ± 1000 nM.

And the “RI (Resistance Index)” value [9]?
Its value is 2.4.

And the IC50 [10]?
The IC50 was 370 ± 100 nM.

And the IC50 [11]?
The IC50 was 400 ± 80 nM.

What about the IC50 [12] of the same compound?
The IC50 was 1000 ± 400 nM.

And the IC50 [13]?
Its IC50 is 900 ± 300 nM.

And the IC50 [14]?
The IC50 was 340 ± 40 nM.

And the IC50 [15]?
Its IC50 is 1700 ± 200 nM.

And the IC50 [16]?
Its IC50 is 1500 ± 500 nM.

And the IC50 ([17]; 72 h, MTT assay, read-out: IC50 ± SD DG-75)?
The IC50 was greater than 10000 nM.

And the “percentage in parentheses after IC50 >10, DG-75” value ([17]; meaning not defined in the paper, given beside >10 μM)?
The value was 18%.

And the IC50 [18]?
The IC50 was 240 ± 60 nM.

`CC[C@@]1(O)C(=O)OCc2c1cc1n(c2=O)Cc2c-1nc1ccccc1c2C=NOCC(=O)NO` [Compound 3a, Camptothecin-7-yl(methyleneaminooxy)-acetic acid hydroxyamide] was tested. Which IC50 ([1]; Homo sapiens, NCI-H460) did it give?
The IC50 was 360 ± 100 nM.

What about the IC50 [2, 19] of the same compound?
Its IC50 is 50 ± 6 nM.

For `CC[C@@]1(O)C(=O)OCc2c1cc1n(c2=O)Cc2c-1nc1ccccc1c2C=NOCCCCCCC(=O)NO` [Compound 3c, 7-(camptothecin-7-ylmethyleneaminooxy)-heptanoic acid hydroxyamide], which IC50 ([1]; Homo sapiens, NCI-H460) is on record?
Its IC50 is 198 ± 180 nM.

And the IC50 [2, 19]?
Its IC50 is 43 ± 3 nM.

What about the IC50 ([3]; Homo sapiens, A-431, read-out: IC50 ± SD A431) of the same compound?
Its IC50 is 26 ± 1 nM.

And the IC50 ([4]; Homo sapiens, HeLa)?
Its IC50 is 2400 ± 500 nM.

What about the IC50 ([5]; Homo sapiens, HT-29, read-out: IC50 ± SD HT29) of the same compound?
Its IC50 is 45 ± 10 nM.

And the IC50 ([6]; Homo sapiens, DU-145, read-out: IC50 ± SD DU145)?
Its IC50 is 29 ± 1 nM.

And the IC50 ([7]; Homo sapiens, HepG2, read-out: IC50 ± SD HepG2)?
Its IC50 is 680 ± 200 nM.

What about the IC50 ([8]; Homo sapiens, A2780, read-out: IC50 ± SD A2780) of the same compound?
The IC50 was 38 ± 8 nM.

What about the “RI (Resistance Index)” value [9] of the same compound?
The value was 1.7.

What about the IC50 ([9]; Homo sapiens, A2780/DX) of the same compound?
Its IC50 is 65 ± 10 nM.

— paper PMC6177136, “Hybrid topoisomerase I and HDAC inhibitors as dual action anticancer agents” (PLoS ONE, 2018)
